Measured values published in patent publication US5158963A, “1-4-dihydropyridine derivative, process for preparing the same and pharmaceutical composition containing the same” (Kaken Pharmaceutical Co., Ltd., priority 1989, dated 1992).
“Also recorded” adds a separate entry of the source.

Tests used:
[1] = test system: decapitation induced hypoxia; experiment: Activity against decapitation induced hypoxia in mice; format: in vivo, mouse (Slc:ddy male mice); details: oral
Experimental: In each group five Slc:ddy male mice weighing 20 to 22 g (4 weeks) were employed. Sixty minutes after oral administration of a test compound, mice were decapitated with a guillotine. After the decapitation, duration of gasping of head was measured with a timer (CT-916 Type, made by HATTORI SEIKO CO., LTD.) gearing into the guillotine.
Each of test compound was suspended in a 0.5% solution of methyl cellulose and administered. Inhibition rate was calculated by comparing with a 0.5% aqueous solution of methyl cellulose as control. That is, the inhibition rate was calculated by the following formula. [formula]

[2] = test system: tonic extensive convulsion caused by pentylenetetrazole; experiment: Activity against convulsion caused by pentylenetetrazole in mice; format: in vivo, mouse (Slc:ddy male mice); details: oral
Experimental: In each group 4-8 Slc:ddy male mice weighing 24 to 32 g (5 weeks) were bred at room temperature of 22° to 24° C. under an environment of 60% humidity for 1 week, and then the bred mice were subjected to the following test. The test was carried out as the following procedure. One hour after the oral administration of a test compound, 40 mg/kg of pentylenetetrazole was administered in a caudal vein. Appearance of tonic extensive convulsion caused by pentylenetetrazole was measured as indication, and anticonvulsive activity was examined. Each of test compound was suspended in a 0.5% solution of methyl cellulose used as a control group.

[3] = test system: tonic extensive convulsion (maximal electroshock-induced seizures); experiment: Activity against maximal electroshock-induced seizures in mice; format: in vivo, mouse (Slc:ddy male mice); details: oral
Source text: In each group six Slc: ddy male mice weighing 26 to 31 g (5 weeks) were employed. Sixty minutes after oral administration of a test compound, corneal electrodes which were wet by physiological saline were contacted with both eyes of a mouse. Then, appearance of tonic extensive convulsion (TE) caused by electrifying under a stimulation condition of 50 mA, 1000 V and 0.2 sec by means of the apparatus of Woodburg & Davenport (made by Kyoto Keisokuki) was judged as indication.
Each of diphenylhydantoin, the compounds Nos. 2, 4, 5, 6, 7, 50, 51 and 52 of the present invention (refer Table 1, hereinafter the same) and nimodipine was suspended in a 0.5% solution of methyl cellulose to subject the test. Flunarizine was suspended in a 5% solution of gum arabic to subject the test.

[4] = test system: immobility time of forced swimming test; experiment: Activity against immobility time of forced swimming test in mice; format: in vivo, mouse (Slc:ICR male mice); details: oral
Experimental: In each group 6 Slc:ICR male mice weighing 25 to 32 g (5 weeks) were bred at the room temperature of 22° to 24° C. under an environment of 60% humidity for 1 week, and then the bred mice were subjected to the following test. The test was carried out by monitering action to voluntarily escape with TV camera when a mouse was put into a cylinder of which inner diameter was 11 cm wherein 17 cm of water being the temperature 25° C. as added. As indication immobility time for 6 minutes was measured. In the test mice were employed which were compulsorily swun for 6 minutes in once per day for continuous 3 day. The investigation for immobility time was carried out by measuring immobility time for 6 minutes 1 hour after oral administration of a test compound. Each of test compound was suspended in a 0.5% solution of methyl cellulose used as a control group. Significant difference is shown with the significance level (* : p<0.05) obtained by comparing data of control group by LSD method.

blood pressure = experiment: Activity for blood pressure in rats; format: in vivo, rat (Wister male rats); details: oral; for Blood pressure: 100 mg/kg; for activity for decreasing blood pressure (in words): normal rats
Experimental: In each group 4 Wister male rats weighing 200 to 300 g (10 to 15 weeks) were employed. The day before a test, rats were anesthetized with eter, and a polyethylene tube was inserted into aorta abdominalis of a rat. The other end of the polyethylene tube was led out of the rat's body. The led polyethylene tube was connected with a pressure transducer (RM-85, made by Yamamoto Kohden). Blood pressure was measured under a condition of no restriction.

Acute toxicity in mice = experiment: Acute toxicity in mice; set-up: species or system mouse (Slc:ddy male mice); details: in vivo; mouse, oral administration, death rate after 7 days
Experimental: The compound No. 2 of the present invention was orally administered to 5-15 in each group Slc:ddy male mice weighing 24 to 32 g (5 weeks). With death rate after 7 days value of acute toxicity was measured.

[5] = in vivo; cited from earlier work
[6] = administered over an extended period of time; cited from earlier work
[7] = Mus musculus, 1 h, 60 min before decapitation, duration of gasping vs control, read-out: Inhibition rate

Structure (SMILES) | inhibition in vivo at 10 mg/kg [1, 7] | inhibition in vivo at 30 mg/kg [1, 7] | effect in decapitation induced hypoxia (in words) [1] | effect on tonic extensive convulsion caused by pentylenetetrazole (in words) [2] | inhibitory activity against tonic extensive convulsion (share of cases) ([3]; 100 mg/kg) | inhibitory activity against tonic extensive convulsion (share of cases) ([3]; 200 mg/kg) | effect on the immobility time (in words) ([4]; 100 mg/kg) | effect on immobility time of forced swimming test (in words) [4] | Blood pressure (blood pressure; after 15 min.) | Blood pressure (blood pressure; after 30 min.) | Blood pressure (blood pressure; after 60 min.) | Blood pressure (blood pressure; after 120 min.) | activity for decreasing blood pressure (in words) (blood pressure) | LD50 at 168 h (Acute toxicity in mice) | vasodepressor activity and coronary vasodilator activity [5] | side effects caused by central nervous system inhibitory activity [6] | inhibition in vivo at 100 mg/kg ([1]; Mus musculus, 1 h, 100 mg/kg, 60 min before decapitation, duration of gasping vs control, read-out: Inhibition rate) | effect on the immobility time (in words) ([4]; 200 mg/kg) | inhibitory activity against tonic extensive convulsion (share of cases) ([3]; 50 mg/kg) | effect on the immobility time (in words) ([4]; 50 mg/kg)
C#Cc1cccc(C2C(C(=O)OCC)=C(C)NC(C)=C2C(=O)OCC)c1 [Compound No. 2, 3,5-Diethoxycarbonyl-1,4-dihydro-2,6-dimethyl-4-(3ethynylphenyl)pyridine] | 10.8% | 20.5% | same extent effect as that of flunarizine; also recorded: stronger effect than that of nimodipine and that of nicardipine | inhibited the tonic extensive convulsion; also recorded: approximately the same extent of the effect of the positive control drug diphenylhydantoin; also recorded: stronger effect than the effect of nimodipine and the effect of nicardipine | two thirds | all cases | showed the effect on the immobility time | immobility time of forced swimming test reduced | 100.6 mmHg | 98.4 mmHg | 94.8 mmHg | 92.9 mmHg | very weak activity for decreasing blood pressure | 534 mg/kg |  |  |  |  |  | 
COC(=O)C1=C(C)NC(C)=C(C(=O)OC)C1c1ccccc1[N+](=O)[O-] [Nifedipine, dimethyl 2,6-dimethyl-4-(2-nitrophenyl)-1,4-dihydropyridine-3,5-dicarboxylate] |  |  |  |  |  |  |  |  |  |  |  |  |  |  | strong |  |  |  |  | 
Fc1ccc(C(c2ccc(F)cc2)N2CCN(C/C=C/c3ccccc3)CC2)cc1 [Flunarizine, reference compound] | 12.1% | 24.3% |  |  | a third | five sixths |  | ineffective; also recorded: no effect |  |  |  |  |  |  |  | Parkinson symptom and depression symptom |  |  |  | 
C#Cc1cccc(C2C(C(=O)OC)=C(C)NC(C)=C2C(=O)OCC=C(C)C)c1 (stereo not drawn) [Compound No. 52, 5-Methoxycarbonyl-3-(3-methyl-2-butenyloxycarbonyl)-1,4-dihydro-2,6-dimethyl-4-(3-ethynylphenyl)pyridine] |  |  |  |  |  | two thirds |  | immobility time of forced swimming test reduced |  |  |  |  |  |  |  |  | 26.4% | showed the effect on the immobility time |  | 
C#Cc1cccc(C2C(C(=O)OCC)=C(C)NC(C)=C2C(=O)OC(C)C)c1 (stereo not drawn) [Compound No. 4, 5-Ethoxycarbonyl-3-isopropoxycarbonyl-1,4-dihydro-2,6-dimethyl-4-(3-ethynylphenyl)pyridine] | 8.8% | 25.7% | same extent effect as that of flunarizine; also recorded: stronger effect than that of nimodipine and that of nicardipine |  | five sixths |  | showed the effect on the immobility time | immobility time of forced swimming test reduced | 100.1 mmHg | 97.2 mmHg | 93.4 mmHg | 90.5 mmHg | very weak activity for decreasing blood pressure |  |  |  |  | showed the effect on the immobility time | two thirds | showed the effect on the immobility time
